According to US20240408119A1, “DELIVERY OF THERAPEUTIC ALKALOID COMPOUNDS” (priority 2022, published 2024):

Biological target: SERT (Homo sapiens (Human), UniProt P31645)
Assay: SERT Inhibition Assay (Neurotransmitter Transporter Fluorescence assay, stable 5HTT cells)
Assay type: cell-based
Protocol: SERT inhibition was measured using a Neruotransmitter Transportation Fluorescence assay. Briefly, stable 5HTT cells were prepared in a 384 microwell plate. Compounds were prepared by in assay buffer (20 mM HEPES, 0.1% BSA). The compounds were added to the plated cells and incubated for 30 minutes at 37° C. 25 μL of dye solution (Molecular Devices Neurotransmitter Transporter Uptake Assay Kit) was added per well and incubated for 30 minutes at 37° C. The plates were then read on a plate reader.

COc1ccc([C@@]23CCC(OP4(=O)OCC(C)(C)CO4)=C[C@@H]2N(C)CC3)cc1OC [Compound 323, 2-[[(3aS,7aS)-3a-(3,4-dimethoxyphenyl)-1-methyl-3,4,5,7a-tetrahydro-2H-indol-6-yl]oxy]-5,5-dimethyl-1,3,2λ^5-dioxaphosphinane 2-oxide]
IC50: 62.7 nM
